Test results published in patent US5858684A, “Method of screening calcium receptor-active molecules” (priority 1995, dated 1999).
Entries after “also recorded” stand apart in the source; their conditions may differ. Read-outs that look alike come from different tables or passages of the source.

How the values were obtained:
Assay type in all cases: cell-based
[1] = biological target: T1, human parathyroid cell calcium receptor (pHuPCaR 5.2, pHuPCaR 4.0) (Homo sapiens, UniProt P41180); assay: Cl- current in Xenopus oocytes expressing cloned human parathyroid calcium receptor; conditions: for concentrations evoking increases in Cl- current: 0.3 mM extracellular Ca2+; for response in the absence of extracellular Ca2+: no extracellular Ca2+
T1 sequence (P41180 with tags, fused parts or gaps INS536PLTFVLSVLQ/Q926R/E1011Q): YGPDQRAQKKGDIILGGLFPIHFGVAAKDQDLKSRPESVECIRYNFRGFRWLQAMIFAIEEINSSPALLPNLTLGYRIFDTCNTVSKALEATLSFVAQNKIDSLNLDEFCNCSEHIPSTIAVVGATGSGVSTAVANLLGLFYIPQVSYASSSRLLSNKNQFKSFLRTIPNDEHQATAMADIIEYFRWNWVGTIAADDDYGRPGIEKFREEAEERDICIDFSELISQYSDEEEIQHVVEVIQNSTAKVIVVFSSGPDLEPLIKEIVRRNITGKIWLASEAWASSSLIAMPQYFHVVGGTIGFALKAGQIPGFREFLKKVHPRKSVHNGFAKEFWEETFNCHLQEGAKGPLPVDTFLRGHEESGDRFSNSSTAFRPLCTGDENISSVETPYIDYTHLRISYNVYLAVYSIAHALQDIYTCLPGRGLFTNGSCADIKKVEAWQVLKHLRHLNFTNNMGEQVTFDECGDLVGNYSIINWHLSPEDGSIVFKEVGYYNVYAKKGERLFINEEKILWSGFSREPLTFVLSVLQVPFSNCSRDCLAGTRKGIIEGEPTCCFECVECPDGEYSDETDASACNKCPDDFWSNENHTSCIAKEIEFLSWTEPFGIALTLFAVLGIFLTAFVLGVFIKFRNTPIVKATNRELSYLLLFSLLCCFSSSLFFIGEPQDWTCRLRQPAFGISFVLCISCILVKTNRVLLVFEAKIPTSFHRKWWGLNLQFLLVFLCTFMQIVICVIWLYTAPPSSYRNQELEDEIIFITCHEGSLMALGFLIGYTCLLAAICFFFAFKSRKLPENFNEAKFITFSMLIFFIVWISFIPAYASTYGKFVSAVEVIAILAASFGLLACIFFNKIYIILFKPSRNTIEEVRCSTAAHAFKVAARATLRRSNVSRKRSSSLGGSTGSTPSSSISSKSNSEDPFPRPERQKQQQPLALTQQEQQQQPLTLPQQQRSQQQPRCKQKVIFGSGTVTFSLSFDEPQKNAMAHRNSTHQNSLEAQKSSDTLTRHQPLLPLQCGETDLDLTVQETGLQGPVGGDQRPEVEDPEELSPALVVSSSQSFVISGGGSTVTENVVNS
Method: Representative cDNA inserts for both size classes were subcloned into the plasmid vector pBluescript SK. Linearization followed by in vitro transcription using T7 RNA polymerase produced cRNA transcripts. The cRNA transcripts were injected into Xenopus oocytes (150 ng/μl RNA; 50 nl/oocyte) for functional analysis. Following incubation periods of 2-4 days, the oocytes were assayed for the presence of functional calcium receptors. Both clone types gave rise to functional calcium receptors as assessed by the stimulation of calcium-activated chloride currents upon addition of appropriate calcium receptor agonists. […] Thus, both clones encode a functional, human parathyroid cell calcium receptor.
Xenopus oocytes were injected with pHuPCaR 5.2, the 5.2 Kb cDNA encoding a parathyroid cell calcium receptor derived from a human parathyroid cell adenoma. (See Example 27.) After two to three days, Cl^- currents were measured in the oocytes using a two-electrode voltage clamp.

[2] = test system: parathyroid cell calcium receptor; conditions: for response in the absence of extracellular Ca2+: Ca2+-free / absence of extracellular Ca2+
C-cell calcium receptor = biological target: T2, C-cell calcium receptor (Rattus norvegicus, UniProt P48442); parameters: Neoplastic C-cells derived from a rat medullary thyroid carcinoma (rMTC 6-23); host or cells: rMTC 6-23
T2 sequence (P48442 20-1079): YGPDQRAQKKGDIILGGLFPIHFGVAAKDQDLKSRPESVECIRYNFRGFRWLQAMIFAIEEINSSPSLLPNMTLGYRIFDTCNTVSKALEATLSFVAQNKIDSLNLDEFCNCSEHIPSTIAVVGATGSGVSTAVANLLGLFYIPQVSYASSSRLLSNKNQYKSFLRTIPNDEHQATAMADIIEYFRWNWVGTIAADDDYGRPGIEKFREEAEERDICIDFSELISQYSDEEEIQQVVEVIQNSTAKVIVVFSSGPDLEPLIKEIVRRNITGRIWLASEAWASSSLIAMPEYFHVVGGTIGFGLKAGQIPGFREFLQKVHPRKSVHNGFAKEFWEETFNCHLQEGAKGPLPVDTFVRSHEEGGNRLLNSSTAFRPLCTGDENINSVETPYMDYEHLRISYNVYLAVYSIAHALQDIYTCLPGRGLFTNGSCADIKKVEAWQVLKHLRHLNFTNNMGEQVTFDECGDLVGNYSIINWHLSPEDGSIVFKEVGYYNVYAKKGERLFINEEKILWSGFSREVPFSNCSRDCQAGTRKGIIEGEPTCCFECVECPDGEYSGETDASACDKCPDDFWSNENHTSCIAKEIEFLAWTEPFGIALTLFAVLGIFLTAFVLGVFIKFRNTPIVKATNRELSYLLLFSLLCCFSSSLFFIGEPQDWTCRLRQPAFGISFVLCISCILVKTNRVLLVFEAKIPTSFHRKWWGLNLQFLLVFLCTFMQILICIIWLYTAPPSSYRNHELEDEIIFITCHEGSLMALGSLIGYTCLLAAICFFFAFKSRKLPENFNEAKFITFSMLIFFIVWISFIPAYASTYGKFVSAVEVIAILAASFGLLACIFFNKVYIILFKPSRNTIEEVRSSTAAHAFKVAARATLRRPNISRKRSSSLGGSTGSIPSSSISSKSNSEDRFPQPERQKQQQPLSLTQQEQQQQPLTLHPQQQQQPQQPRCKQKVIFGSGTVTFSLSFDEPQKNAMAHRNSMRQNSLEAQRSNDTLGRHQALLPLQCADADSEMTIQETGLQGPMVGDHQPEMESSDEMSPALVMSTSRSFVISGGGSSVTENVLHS
Excerpt: To assess the effects of molecular polycations on C-cells, a neoplastic cell line, derived from a rat medullary thyroid carcinoma (rMTC 6-23 cells) was used.

[3] = rMTC 6-23 cells, fura-2, inactive = no increase in cytosolic Ca2+ at 1-5 mM

Row | Structure (SMILES) | activation of oocyte-expressed human receptor [1] | response in the absence of extracellular Ca2+ [2] | effect on responses to extracellular Ca2+ ([2]; bovine parathyroid cells) | concentrations evoking increases in Cl- current [1] [µM] | response in the absence of extracellular Ca2+ [1] | increase in [Ca2+]i / mobilization of intracellular Ca2+ [2] | also measured
1 | COc1cccc([C@@H](C)NCCCc2ccccc2)c1 (single isomer, unassigned) [NPS R-467] | activated the oocyte-expressed receptor at about the same concentrations | abolished; also recorded: do not cause the mobilization of intracellular | increase the sensitivity of the calcium receptor | – | – | – | increase in [Ca2+]i after 10 μM neomycin ([2]; 30 μM NPS R-467 after 10 μM neomycin, Ca2+-free buffer): elicited a transient increase; increase in [Ca2+]i after 100 μM neomycin ([2]; 30 μM NPS R-467 after 100 μM neomycin, Ca2+-free buffer): did not cause an increase; increase in [Ca2+]i (words) ([2]; 30 μM, Ca2+-free buffer): no increase; also recorded: did not cause any increase; increase in [Ca2+]i (words) ([2]; 0.5 mM extracellular Ca2+): rapid and transient increase
2 | NCCCNCCCCNCCCNCCCNCCCNC(=O)Cc1c[nH]c2ccccc12 [NPS 019] | – | – | – | 3 to 30 | persisted | – | transient increase in [Ca2+]i (C-cell calcium receptor; 10 μM, 0.5 mM [Ca2+]): transient increase; EC50 ([2]; bovine parathyroid cells, fura-2, read-out: EC50 PARATHYROID (Table 6)): 40 µM
3 | COc1cccc([C@@H](C)NCCCc2ccccc2Cl)c1 [NPS R-568, (R)-(+)-N-[3-(2-chlorophenyl)propyl]-amethyl-α-3-methoxybenzylamine] | activated the oocyte-expressed receptor at about the same concentrations | fails to evoke increases; also recorded: do not cause the mobilization of intracellular | potentiate responses to extracellular; also recorded: increase the sensitivity of the calcium receptor | 3 to 30 | abolished | evokes increases | EC50 (C-cell calcium receptor; [3]): 1.9 µM; effect on extracellular Ca2+ concentration-response curve [1]: shifted the concentration-response curve to the left
4 | NC[C@@H]1O[C@H](O[C@H]2[C@@H](O)[C@H](O[C@@H]3[C@@H](O)[C@H](N)C[C@H](N)[C@H]3O[C@H]3O[C@H](CN)[C@@H](O)[C@H](O)[C@H]3N)O[C@@H]2CO)[C@H](N)[C@@H](O)[C@@H]1O [Neomycin] | – | – | – | – | – | evoked rapid and transient increases | effect on basal [Ca2+]i (C-cell calcium receptor): fails to affect basal or evoked increases; also recorded: without effect on basal; EC50 C-CELL (Table 6) (C-cell calcium receptor; [3]): inactive; increase in [Ca2+]i (words) ([2]; 10 μM, Ca2+-free buffer): did not by itself cause an increase; increase in [Ca2+]i (words) ([2]; 100 μM, absence of extracellular Ca2+): evoked a rapid and transient increase
